According to article PMC9575645 (Signal Transduction and Targeted Therapy, 2022):

Legend:
[1] = test system: Influenza A virus (H1N1) (PR8); conditions: for SI (CC50/IC50) / IC50: Influenza A virus (H1N1) (PR8); for IC50: A549 cells
[2] = test system: Porcine epidemic diarrhea coronavirus (QIAP1401); assay: In vitro antiviral activity against PEDV in Vero E6 cells (CCIF viral yield); format: cell-based; conditions: for IC50: Vero E6 cells
Protocol: Cells were grown in 6- or 12-well plates or 8-well chamber slides to the desired confluency and then washed twice with phosphate-buffered saline (PBS, pH 7.4). They were then mock-inoculated with medium only or virus-inoculated with various multiplicities of infection (MOI): MOI of 0.01 or 1 FFU/cell for IAV, and MOI of 0.01 or 0.1 FFU/cell for SARS-CoV-2, BCoV, PEDV, PRRSV, and PSaV. Thereafter, each inoculum was absorbed for 1 h, and the cells were washed twice with PBS (pH 7.4). As shown in Supplementary Table 4, further treatments and incubations varied dependent on the virus species used. Cells treated with PKA inhibitor H89 (5 μM or 50 μM concentration) or vehicle-treated immediately after absorption of IAV at an MOI of 1 FFU or SARS-CoV-2 at an MOI of 0.1 FFU were incubated for 24 and 36 h, respectively, and each cell lysate was used for the detection of HSL and pHSL by western blot analysis as described below. Cells treated with lipase inhibitors at the median incubation time of IAV or SARS-CoV-2 as described in the above condition were supplemented with LA, OA, or PA at 100 µM concentration and left incubation for further median incubation time. The cells were used to assess levels of intracellular TAGs, cholesterol, FFAs, glycerol, FAO, proinflammatory cytokines as well as viral genome copy numbers and virus titers as described below and in Supplementary Information.
To determine the antiviral effects of chemicals, serial 10-fold dilutions of each cell culture supernatant after three cycles of freezing and thawing cycles were prepared in appropriate medium supplemented with 100 U/mL penicillin and 100 μg/mL streptomycin as described above. To determine the viral infectivity titer in lung tissues from the hamsters challenged with or without SARS-CoV-2, or administered with or without inhibitors as described above, aseptically sampled lungs from five hamsters per group at day five post-virus infection were harvested. Cleared supernatants from lung tissue as produced from IAV-infected mice above were serially tenfold-diluted with virus growth medium. […] The cells were washed twice with PBS (pH 8.0), mounted with 60% glycerol, and observed byr inverted fluorescence microscopy. The number of cells showing a viral antigen-positive signal at the endpoint dilution were counted. IC50 was calculated using GraphPad Prism software version 8.4.2. […] CC50 data from the MTT assay and IC50 from the IF assay were both calculated using GraphPad Prism software version 8.4.2.

[3] = test system: LLC-PK; assay: Cytotoxicity, MTT assay, LLC-PK; format: cell-based, porcine
Protocol: (§1) The cytotoxic effects of the chemicals and their solvents were tested by the MTT assay,[44] and its procedure is described in Supplementary Information.
(§2) The cytotoxic effects of the chemicals and their solvents used were tested by the MTT assay as described previously.^10 In brief, the chemicals were dissolved in DMSO to a stock concentration of 10 mM, and then freshly serially diluted in serum-free medium before being added to cell culture monolayers. The absorbance was measured using an enzyme-linked immunosorbent assay (ELISA) reader at an optical density (OD) of 570 nm. The percent cell viability was calculated using the following formula, [(ODsample˗ODblank)/(ODcontrol˗ODblank)] × 100%. According to the cell cytotoxicity data, dose-response curves were generated for the calculation of CC50 using GraphPad Prism software version 8.4.2.

[4] = test system: seven target RNA viruses; assay: Broad-spectrum antiviral effect at 1-20 µM at different treatment times (RT-qPCR, CCIF); format: cell-based; conditions: all target RNA viruses, treated just prior to the peak of lipase activity vs immediately after virus absorption
[5] = test system: HRT18G; assay: Cytotoxicity, MTT assay, HRT18G; format: cell-based, human
Protocol: as §1, §2

Row | Structure (SMILES) | virus replication (genome copy number, infectious progeny) [1] | SI (CC50/IC50) [1] | IC50 [1] | SI (CC50/IC50) [2] | IC50 [2] | CC50 [3] | viral genome replication and infectious progeny production [4] | CC50 [5]
1 | CN(C)C(=O)Nc1cccc(-c2ccc(N(C)C)cc2)c1 [Atglistatin] | inhibiting the replication | 251 | 0.82 ± 0.08 µM | 116 | 1.96 ± 0.14 µM | 224 ± 2.3 µM | greater reduction in viral genome replication and infectious progeny production of all target RNA viruses in a dose-dependent manner | 182 ± 2.6 µM
2 | COc1nn(-c2ccc(NC(=O)OCc3ccccc3)c(C)c2)c(=O)o1 [CAY10499] | inhibiting the replication | 27 | 4.13 ± 0.46 µM | 30 | 3.19 ± 0.42 µM | 109 ± 8.1 µM | greater reduction in viral genome replication and infectious progeny production of all target RNA viruses in a dose-dependent manner | 104 ± 9.1 µM
